Converted amounts (≈) assume the structure as drawn. Read-outs that look alike come from different tables or passages of the source. Where a SMILES comes first, the peptide text is derived from it. The star is where a group is joined. Butanoyl(2,2-Me2) = CCC(C)(C)C(=O)*; Octanoyl(6-Me) = CCC(C)CCCCC(=O)*; Octanoyl = CCCCCCCC(=O)*
Assays:
[1] = system: Pseudomonas aeruginosa PAO1 planktonic cells; type: cell-based
Description: Minimal inhibitory concentrations (MIC) of the peptides were determined in Mueller Hinton (MH) medium (Difco Laboratories, Detroit, MI, USA) by the broth microdilution assay following recommendations of the Clinical and Laboratory Standards Institute (CLSI, formerly NCCLS) with some modifications. Minimum bactericidal concentration (MBC) was defined as the concentration that caused a 3-log viability decrease in the initial inoculum and was calculated by colony counts on TSA plates incubated for 24 h at 37 °C.

[2] = system: P. aeruginosa PAO1; assay: Time-kill curves (T3log); type: cell-based, Pseudomonas aeruginosa; conditions: MH, 37 °C with shaking, sampling 15 min to 6 h
Description: Time-kill studies were determined with glass tubes containing 10 ml of MH and different concentrations of the peptides (1, 2 and 4 times their MIC). Overnight cultures of P. aeruginosa PAO1 in TSB were adjusted at 5 × 10^7 CFU/ml turbidimetrically. This […] suspension was diluted in the MH tubes (1:50) for the time-kill assay. Tubes were incubated at 37 °C with shaking and samples were taken at the following time points after the beginning of incubation: 15 min, 30 min, 45 min, 1 h, 2 h, 4 h and 6 h. Each sample was serially diluted and plated. The lower limit of detection was 30 CFU/ml (1.5 × log10 CFU/ml).
To quantify the killing efficiency of the treatments, the parameter T3log (defined as the time required for the treatment to decrease 3 logs the initial inoculum) was used.

[3] = system: P. aeruginosa PAO1 biofilms; type: cell-based, Pseudomonas aeruginosa
Description: (§1) In the microplate based assay, biofilms were grown with no fluid shear and the anti-biofilm activity of peptides was assessed as previously described with some modifications. Briefly, overnight cultures of P. aeruginosa PAO1 in TSB were adjusted at 5 × 10^7 CFU/ml turbidimetrically. This suspension was diluted in TSB (1:100) and 100 μl aliquots were added to the wells of a 96-well plate. After 24 h incubation at 37 °C, planktonic bacteria were removed by gently inverting the plate and then the biofilm-containing wells were washed with saline (0.85 % NaCl). The antimicrobial compound was serially diluted in Mueller Hinton (MH) at final concentrations higher than its planktonic MIC and 200 μl of each dilution was added to the wells. After 24 h incubation at 37 °C, biofilms were stained with either MTT (Sigma, St. Louis, MO, USA) or crystal violet (CV). As control, duplicate biofilms were incubated with MH containing no antimicrobial.
To quantify the disinfection (or bactericidal) activity of the antimicrobials on the biofilms, the MTT assay was used and performed as follows. After the treatment, the biofilms were rinsed with saline and 200 μl of a 0.5 mg/ml dilution of MTT in MH, was added to the wells. Incubation of biofilm with MTT was carried out during 4 h at 37 °C with no shaking. As a measure of cell viability, the conversion of MTT to a […] was determined by solubilizing the salt in 100 μl/well of DMSO and reading the absorbance of the resulting solution at 540 nm.
(§2) Both the disinfection and removal activity of antimicrobials were expressed as “activity percentage”, a parameter that was calculated using the following formula: ActivityPercentage=C−B−T−B/C−B×100
(§3) Where C is the absorbance value of the control well with non-treated biofilm, T corresponds to the absorbance value of the well with treated biofilm and B is the blank well (i.e. with no biofilm).

[4] = system: P. aeruginosa PAO1 biofilms; assay: Microplate biofilm assay (static flow regime), crystal violet removal activity; type: cell-based, Pseudomonas aeruginosa; conditions: 10XMIC, 24 h at 37 °C, biofilms grown in microplates (static conditions)
Description: as §1, with “After 24 h incubation at 37 °C, biofilms were stained with either MTT (Sigma, St. Louis, MO, USA) or crystal violet (CV). As control, duplicate biofilms were incubated with MH containing no antimicrobial.” left out
The ability of the antimicrobials to remove the biofilm attached to the microplate well was determined by CV staining. […] The absorbance was measured at 595 nm.
as §2, §3

[5] = system: HeLa cells; assay: Cytotoxicity assay (MTT); type: cell-based; conditions: HeLa cells, 24 h, MTT; maximum concentration assayed 10 times their MIC
Description: Cytotoxicity was assayed on HeLa cells using the MTT [3-(4,5-dimethylthiazoyl-2-yl) 2,5 diphenyltetrazolium bromide protocol. Cells were grown in Dulbeccos’s modified Eagle’s medium (DMEM) and adjusted to a concentration of 10^5 cells/ml (MTT) in 96 wells polystyrene plates. Plates were incubated for 24 h at 37 °C in 5 % CO2, then supplemented with increasing amounts of peptides diluted in 2 mM Hepes pH 7.2, and incubation carried on for 24 h under the same conditions. After this time, filter-sterilized MTT was added in different plates. After 3 h, the content of the wells was gently solved and mixed with 100 μl of DMSO (MTT). Absorbance was measured at 540 nm. Compound cytotoxicity was expressed as LC50, the concentration of the compound that is lethal to 50 % of the cells.

CCCCCCCC(=O)N[C@@H](Cc1ccccc1)C(=O)N[C@@H](Cc1c[nH]c2ccccc12)C(=O)N[C@@H](CCCNC(=N)N)C(=O)N[C@@H](CCCNC(=N)N)C(=O)N[C@@H](Cc1ccccc1)C(=O)N[C@@H](Cc1c[nH]c2ccccc12)C(=O)N[C@@H](CCCNC(=N)N)C(=O)N[C@@H](CCCNC(=N)N)C(N)=O [O-LF11-227] (Octanoyl-FWRRFWRR-NH2)
MBC (minimal bactericidal concentration) ([1]; PAO1, 24 h): 128 µg/mL (≈ 89.2 µM)
MIC (minimal inhibitory concentration) ([1]; PAO1, 24 h): 128 µg/mL (≈ 89.2 µM)
T3log at 1X MIC (time needed to decrease 3 logs the initial inoculum) [2]: 10 minutes
T3log at 2X MIC (time needed to decrease 3 logs the initial inoculum) [2]: 10 minutes
T3log at 4X MIC (time needed to decrease 3 logs the initial inoculum) [2]: 10 minutes

CC[C@H](C)[C@H](NC(=O)[C@H](CCCNC(=N)N)NC(=O)[C@@H](NC(=O)[C@H](CCCNC(=N)N)NC(=O)[C@H](Cc1c[nH]c2ccccc12)NC(=O)[C@H](Cc1ccccc1)NC(=O)C(C)(C)CC)[C@@H](C)CC)C(=O)N[C@@H](CCCNC(=N)N)C(=O)N[C@@H](CCCNC(=N)N)C(N)=O [DI-MB-LF11-215] ({Butanoyl(2,2-Me2)}-FWRIRIRR-NH2)
MBC (minimal bactericidal concentration) ([1]; PAO1, 24 h): 16 µg/mL (≈ 12.3 µM)
MIC (minimal inhibitory concentration) ([1]; PAO1, 24 h): 16 µg/mL (≈ 12.3 µM)
T3log at 1X MIC (time needed to decrease 3 logs the initial inoculum) [2]: 17 minutes
T3log at 2X MIC (time needed to decrease 3 logs the initial inoculum) [2]: 11 minutes
T3log at 4X MIC (time needed to decrease 3 logs the initial inoculum) [2]: 10 minutes
Disinfection activity (biofilm-forming bacteria killed, MTT test) ([3]; 10XMIC, 24 h at 37 °C, biofilms grown in microplates (static conditions)): medium-range disinfection activity
Removal activity (biofilm mass removed, CV test) [4]: higher than 35%

CC[C@H](C)[C@H](NC(=O)[C@H](CCCNC(=N)N)NC(=O)[C@@H](NC(=O)[C@H](CCCNC(=N)N)NC(=O)[C@H](Cc1c[nH]c2ccccc12)NC(=O)[C@@H](N)Cc1ccccc1)[C@@H](C)CC)C(=O)N[C@@H](CCCNC(=N)N)C(=O)N[C@@H](CCCNC(=N)N)C(N)=O [LF11-215] (H-FWRIRIRR-NH2)
MIC (minimal inhibitory concentration) ([1]; PAO1 planktonic cells, broth microdilution in Mueller Hinton medium, CLSI with some modifications): 64 µg/mL (≈ 53.3 µM)
MBC (minimal bactericidal concentration) ([1]; PAO1 planktonic cells, concentration causing a 3-log viability decrease in the initial inoculum, colony counts on TSA, 24 h, 37 °C): 128 µg/mL (≈ 107 µM)
LC50 relative to the maximum concentration assayed [5]: > 10 times their MIC

CC[C@H](C)[C@H](NC(=O)[C@H](CCCNC(=N)N)NC(=O)[C@@H](NC(=O)[C@H](CCCNC(=N)N)NC(=O)[C@H](Cc1c[nH]c2ccccc12)NC(=O)[C@H](Cc1ccccc1)NC(=O)[C@@H]1CCCN1)[C@@H](C)CC)C(=O)N[C@@H](CCCNC(=N)N)C(=O)N[C@@H](CCCNC(=N)N)C(N)=O [LF11-322] (H-PFWRIRIRR-NH2)
MBC (minimal bactericidal concentration) ([1]; PAO1, 24 h): 64 µg/mL (≈ 49.3 µM)
MIC (minimal inhibitory concentration) ([1]; PAO1, 24 h): 32 µg/mL (≈ 24.6 µM)

CCCCCCCC(=O)N[C@@H](Cc1ccccc1)C(=O)N[C@@H](Cc1c[nH]c2ccccc12)C(=O)N[C@@H](CCCNC(=N)N)C(=O)N[C@H](C(=O)N[C@@H](CCCNC(=N)N)C(=O)N[C@H](C(=O)N[C@@H](CCCNC(=N)N)C(=O)N[C@@H](CCCNC(=N)N)C(N)=O)[C@@H](C)CC)[C@@H](C)CC [O-LF11-215] (Octanoyl-FWRIRIRR-NH2)
MBC (minimal bactericidal concentration) ([1]; PAO1, 24 h): 32 µg/mL (≈ 24.1 µM)
MIC (minimal inhibitory concentration) ([1]; PAO1, 24 h): 32 µg/mL (≈ 24.1 µM)
T3log at 1X MIC (time needed to decrease 3 logs the initial inoculum) [2]: 17 minutes
T3log at 2X MIC (time needed to decrease 3 logs the initial inoculum) [2]: 21 minutes
T3log at 4X MIC (time needed to decrease 3 logs the initial inoculum) [2]: 10 minutes

CCC(C)CCCCC(=O)N1CCC[C@H]1C(=O)N[C@@H](Cc1ccccc1)C(=O)N[C@@H](Cc1c[nH]c2ccccc12)C(=O)N[C@@H](CCCNC(=N)N)C(=O)N[C@H](C(=O)N[C@@H](CCCNC(=N)N)C(=O)N[C@H](C(=O)N[C@@H](CCCNC(=N)N)C(=O)N[C@@H](CCCNC(=N)N)C(N)=O)[C@@H](C)CC)[C@@H](C)CC (stereo partly shown) [6-MO-LF11-322] ({Octanoyl(6-Me)}-PFWRIRIRR-NH2)
MBC (minimal bactericidal concentration) ([1]; PAO1, 24 h): 64 µg/mL (≈ 44.5 µM)
MIC (minimal inhibitory concentration) ([1]; PAO1, 24 h): 64 µg/mL (≈ 44.5 µM)
T3log at 1X MIC (time needed to decrease 3 logs the initial inoculum) [2]: 41 minutes
T3log at 2X MIC (time needed to decrease 3 logs the initial inoculum) [2]: 39 minutes
T3log at 4X MIC (time needed to decrease 3 logs the initial inoculum) [2]: 19 minutes

N=C(N)NCCC[C@H](NC(=O)[C@H](CCCNC(=N)N)NC(=O)[C@H](Cc1c[nH]c2ccccc12)NC(=O)[C@H](Cc1ccccc1)NC(=O)[C@H](CCCNC(=N)N)NC(=O)[C@H](CCCNC(=N)N)NC(=O)[C@H](Cc1c[nH]c2ccccc12)NC(=O)[C@@H](N)Cc1ccccc1)C(N)=O [LF11-227] (H-FWRRFWRR-NH2)
MBC (minimal bactericidal concentration) ([1]; PAO1, 24 h): 64 µg/mL (≈ 48.9 µM)
MIC (minimal inhibitory concentration) ([1]; PAO1, 24 h): 64 µg/mL (≈ 48.9 µM)
Disinfection activity (biofilm-forming bacteria killed, MTT test) ([3]; PAO1, 24 h): ~100%

CCC(C)CCCCC(=O)N[C@@H](Cc1ccccc1)C(=O)N[C@@H](Cc1c[nH]c2ccccc12)C(=O)N[C@@H](CCCNC(=N)N)C(=O)N[C@H](C(=O)N[C@@H](CCCNC(=N)N)C(=O)N[C@H](C(=O)N[C@@H](CCCNC(=N)N)C(=O)N[C@@H](CCCNC(=N)N)C(N)=O)[C@@H](C)CC)[C@@H](C)CC (stereo partly shown) [6-MO-LF11-215] ({Octanoyl(6-Me)}-FWRIRIRR-NH2)
MBC (minimal bactericidal concentration) ([1]; PAO1, 24 h): 64 µg/mL (≈ 47.7 µM)
MIC (minimal inhibitory concentration) ([1]; PAO1, 24 h): 64 µg/mL (≈ 47.7 µM)
T3log at 1X MIC (time needed to decrease 3 logs the initial inoculum) [2]: 34 minutes
T3log at 2X MIC (time needed to decrease 3 logs the initial inoculum) [2]: 11 minutes
T3log at 4X MIC (time needed to decrease 3 logs the initial inoculum) [2]: 10 minutes

CC[C@H](C)[C@H](NC(=O)[C@H](CCCNC(=N)N)NC(=O)[C@@H](NC(=O)[C@H](CCCNC(=N)N)NC(=O)[C@H](Cc1c[nH]c2ccccc12)NC(=O)[C@H](Cc1ccccc1)NC(=O)[C@H](Cc1ccccc1)NC(=O)[C@@H]1CCCN1)[C@@H](C)CC)C(=O)N[C@@H](CCCNC(=N)N)C(=O)N[C@@H](CCCNC(=N)N)C(N)=O [LF11-324] (H-PFFWRIRIRR-NH2)
MBC (minimal bactericidal concentration) ([1]; PAO1, 24 h): 8 µg/mL (≈ 5.53 µM)
MIC (minimal inhibitory concentration) ([1]; PAO1, 24 h): 8 µg/mL (≈ 5.53 µM)
